Measured values from patent publication US20170348263A1, “COMPOSITIONS AND METHODS OF USING MODIFIED RELEASE SOLABEGRON FOR LOWER URINARY TRACT SYMPTOMS” (VELICEPT THERAPEUTICS, INC., priority 2016, published 2017).

How the values were obtained:
[1] = molecular target: T1, beta-3 adrenoceptor (Rattus norvegicus, UniProt P26255); assay: Receptor desensitization/washout: CCRC after incubation with EC90 concentration and PSS washout, rat bladder strips; type: cell-based
T1 construct: The bladder longitudinal smooth muscle, with the urothelium still attached were mounted in 25 mL organ baths; from tissue; host or cells: rat urinary bladder smooth muscle strips (Male CD rats)
Description: (§1) Macroscopically normal bladders obtained from Male CD rats (220-250 g) were used. […] Each bladder was cleaned free of surrounding connective tissue and halved longitudinally. The bladder longitudinal smooth muscle, with the urothelium still attached were mounted in 25 mL organ baths containing physiological saline solution (PSS) (composition: 119.0 mM NaCl, 4.7 mM KCl, 1.2 mM MgSO4, 24.9 mM NaHCO3, 1.2 mM KH2PO4, 2.5 mM CaCl2 and 11.1 mM glucose) supplemented with 1 μM prazosin (α1-adrenoceptor antagonist) and 30 nM ICI118551 (β2-adrenoceptor antagonist), aerated with 95% O2/5% CO2 gas mix, warmed and maintained at approximately 37° C. throughout the experiment. Changes in force production were recorded using transducers. After mounting, the bladder halves were allowed to equilibrate for at least 30 min before they were set to a stable tension of approximately 1.0 g. The tissue was then allowed to equilibrate over at least a 60 min period with washes every 15 min.
In initial experiments the parameters for the EFS were assessed by performing a frequency curve to determine a frequency that would give a response that was approximately 80% of the response seen to 80 mM KCl. Optimal EFS parameters were determined to be: 30 Volts, square pulse of 0.1 ms, train of 4 seconds every 120 seconds, 15 Hz. This frequency was then used to stimulate the tissue for all subsequent experiments. The viability of bladder strips was tested by stimulating the tissue with EFS for minimum of ten minutes.
Following compound incubation, the tissues were washed with PSS for a period of 1, 3 or 6 hr, with washes approximately every 15 min, to remove the drug. At the end of the final wash period the tissues were stimulated with EFS, and left to equilibrate for at least 30 min. A CCRC was then performed in each tissue. Tissue responses were calculated as the mean (SEM) and expressed as percentage of EFS induced tone.
Tissues were incubated with the EC90 concentration of the test compounds for one hr followed by one hr, three hr or six hr of washing with PSS. […] This EFS-induced potentiation of bladder contraction from baseline was not observed with solabegron. […] Effect of the washout period following a […] incubation with test compound.
In the next series of experiments, tissues were incubated with the EC90 concentration of the test compounds for three hr followed by either one hr, three hr or six hr of washing with PSS.

[2] = molecular target: T2, beta-3 adrenoceptor (Homo sapiens, UniProt P13945); assay: Desensitization and resensitization in isolated human bladder tissue strips (EFS responses); type: cell-based; set-up: dose or concentration left out as unconfirmed
T2 construct: from tissue; host or cells: human urinary bladder muscle strips
Description: Beta-3 adrenoceptor desensitization and resensitization were examined in the human bladder. Similar to the protocol used in the rat bladder, isolated human bladder tissue strips were studied for EFS responses. Optimal EFS parameters were determined to be: 30 volts, square pulse of 0.1 ms, train of 5 seconds every 60 seconds, 8-10 Hz. […] Following compound incubation, the tissues were washed with PSS for a period of 1 or 3 hr, with washes approximately every 15 min, to remove the drug. At the end of the final wash period the tissues were stimulated with EFS, and left to equilibrate for at least 30 min. A concentration-response curve was then performed in each tissue.

[3] = Solubility of solabegron; type: physicochemical
[4] = system: overactive bladder; details: women with moderate to severe OAB; cited from earlier work
[5] = molecular target: T1, beta-3 adrenoceptor; assay: EC90 determination: inhibition of EFS-induced contraction in rat isolated bladder (pilot CCRC); type: cell-based; details: pilot concentration response curves, read-out: EC90 concentration to inhibit EFS-induced contraction
Description: as §1, with “After mounting, the bladder halves were allowed to equilibrate for at least 30 min before they were set to a stable tension of approximately 1.0 g. The tissue was then allowed to equilibrate over at least a 60 min period with washes every 15 min.” left out
In initial experiments the parameters for the EFS were assessed by performing a frequency curve to determine a frequency that would give a response that was approximately 80% of the response seen to 80 mM KCl. Optimal EFS parameters were determined to be: 30 Volts, square pulse of 0.1 ms, train of 4 seconds every 120 seconds, 15 Hz. […]
Pilot studies to determine EC90 concentrations of the test compounds were performed. […] From the data obtained in these experiments, EC90 concentrations of the test compounds were determined for use in subsequent experiments. […]

[6] = three hr incubation with EC90, one hr of washing

T1 sequence (P26255 whole entry): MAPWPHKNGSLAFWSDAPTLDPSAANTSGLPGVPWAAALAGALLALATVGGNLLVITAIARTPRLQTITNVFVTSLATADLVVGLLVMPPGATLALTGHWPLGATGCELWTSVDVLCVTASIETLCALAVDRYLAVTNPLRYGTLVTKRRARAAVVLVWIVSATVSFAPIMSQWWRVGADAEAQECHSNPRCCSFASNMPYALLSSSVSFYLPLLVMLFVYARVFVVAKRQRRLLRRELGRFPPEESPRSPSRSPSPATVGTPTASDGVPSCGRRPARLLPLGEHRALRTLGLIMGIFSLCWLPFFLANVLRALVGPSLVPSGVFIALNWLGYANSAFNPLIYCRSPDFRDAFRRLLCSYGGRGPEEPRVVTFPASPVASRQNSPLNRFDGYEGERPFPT
T2 sequence (P13945 whole entry): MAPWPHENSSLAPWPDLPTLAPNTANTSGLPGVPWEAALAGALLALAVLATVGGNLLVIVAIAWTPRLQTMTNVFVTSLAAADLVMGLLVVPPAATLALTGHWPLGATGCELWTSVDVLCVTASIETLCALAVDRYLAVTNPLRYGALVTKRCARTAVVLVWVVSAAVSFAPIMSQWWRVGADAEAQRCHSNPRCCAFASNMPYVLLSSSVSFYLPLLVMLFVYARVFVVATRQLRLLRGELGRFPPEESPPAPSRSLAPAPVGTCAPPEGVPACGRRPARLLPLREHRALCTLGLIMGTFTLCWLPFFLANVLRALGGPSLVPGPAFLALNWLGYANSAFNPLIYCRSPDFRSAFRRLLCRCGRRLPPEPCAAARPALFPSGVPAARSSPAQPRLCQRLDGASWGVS

SMILES: O=C(O)c1cccc(-c2cccc(NCCNC[C@H](O)c3cccc(Cl)c3)c2)c1 [Solabegron, 3′-[(2-{[(2R)-2-(3-chlorophenyl)-2-hydroxyethyl]amino}ethyl)amino]biphenyl-3-carboxylic acid]
- response (reduction of EFS-induced tone) after pre-exposure ([1]; one hr incubation with EC90, one hr of washing with PSS, vs vehicle incubation): significantly attenuated
- response (reduction of EFS-induced tone) after pre-exposure ([1]; one hr incubation with EC90, three hr of washing, responses to higher concentrations): significantly attenuated
- response (reduction of EFS-induced tone) after pre-exposure [1, 6]: significantly attenuated
- response (reduction of EFS-induced tone) after pre-exposure ([1]; three hr incubation with EC90, three hr of washing, responses to the highest concentrations): significantly attenuated
- inhibition of EFS-induced bladder smooth muscle contraction [2]: concentration-dependent inhibition
- solubility [3]: pH dependent and low solubility
- safety and tolerability, adverse events as compared to placebo [4]: safe, well-tolerated, and does not demonstrate significant differences in adverse events as compared to placebo
- symptoms of overactive bladder [4]: significantly reduce the symptoms of overactive bladder

SMILES: C[C@H](Cc1ccc2c(c1)OC(C(=O)[O-])(C(=O)[O-])O2)NC[C@H](O)c1cccc(Cl)c1.[Na+].[Na+] [CL-316,243, reference compound]
- EC90 [5]: 42 nM
- response (reduction of EFS-induced tone) after pre-exposure [1, 6]: significantly attenuated
